Test results from ChEMBL document CHEMBL1136248, “Further SAR studies on novel small molecule inhibitors of the hepatitis C (HCV) NS5B polymerase” (Bioorg Med Chem Lett, 2003).

These compounds were tested against Genome polyprotein (Hepatitis C virus genotype 1a (isolate 1) (HCV), UniProt P26664) (assay: Inhibition of Hepatitis C RNA dependent RNA polymerase Nonstructural protein 5B activity.).
Chain of Genome polyprotein (P26664 2421-3011 limits assumed): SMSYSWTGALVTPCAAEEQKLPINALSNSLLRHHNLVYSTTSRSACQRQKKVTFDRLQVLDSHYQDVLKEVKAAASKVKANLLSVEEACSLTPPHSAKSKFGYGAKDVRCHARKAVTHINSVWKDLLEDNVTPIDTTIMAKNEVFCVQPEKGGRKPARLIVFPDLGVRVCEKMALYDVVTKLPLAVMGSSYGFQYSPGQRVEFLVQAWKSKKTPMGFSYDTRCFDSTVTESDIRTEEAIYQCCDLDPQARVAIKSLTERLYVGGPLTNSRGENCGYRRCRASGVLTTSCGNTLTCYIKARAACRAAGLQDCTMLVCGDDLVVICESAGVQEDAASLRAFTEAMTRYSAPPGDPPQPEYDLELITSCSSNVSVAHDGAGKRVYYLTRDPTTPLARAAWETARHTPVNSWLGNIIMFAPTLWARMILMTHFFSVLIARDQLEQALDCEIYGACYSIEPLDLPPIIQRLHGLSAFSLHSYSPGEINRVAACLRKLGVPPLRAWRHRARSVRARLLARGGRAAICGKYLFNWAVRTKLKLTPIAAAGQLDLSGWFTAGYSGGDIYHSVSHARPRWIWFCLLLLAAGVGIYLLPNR

Row | Structure (SMILES) | IC50 [µM]
1 | O=C(O)[C@H](Cc1ccccc1)N(Cc1cccc(Br)c1)Cc1ccc(Cl)cc1Cl | 26
2 | O=C(O)[C@H](Cc1ccccc1)N(Cc1cccc(Br)c1)C(=O)Nc1ccc(Cl)cc1Cl | 31
3 | O=C(O)[C@H](Cc1ccccc1)N(Cc1cccc(Br)c1)S(=O)(=O)c1ccc(Cl)cc1Cl | 31
4 | O=C(O)[C@H](Cc1ccccc1)N(Cc1cccc(Br)c1)c1ccc(Cl)cc1Cl | 15
5 | O=C(O)[C@H](Cc1ccccc1)N(Cc1cccc(Br)c1)C(=O)c1ccc(Cl)nc1Cl | 31
6 | COc1ccc(C(=O)N(Cc2cccc(Br)c2)[C@@H](Cc2ccccc2)C(=O)O)c(OC)c1 | 10.7
7 | O=C(O)[C@H](Cc1ccccc1)N(Cc1cccc(Br)c1)C(=O)c1c(Cl)cc(Cl)cc1Cl | 13
8 | O=C(O)[C@H](Cc1ccccc1)N(Cc1cccc(Br)c1)C(=O)c1ccc(F)cc1F | 43

The next lines start with the values.

Row | IC50 [µM] | Structure (SMILES)
9 | 3.7 | Cc1cc(Cl)ccc1C(=O)N(Cc1cccc(Br)c1)[C@@H](Cc1ccccc1)C(=O)O
10 | 30 | O=C(O)[C@H](Cc1ccccc1)N(Cc1cccc(Br)c1)C(=O)c1cccc(Cl)c1
11 | 2.7 | O=C(O)[C@H](Cc1ccccc1)N(Cc1cccc(Br)c1)C(=O)c1ccc(Cl)cc1I
12 | 5 | O=C(O)[C@H](Cc1ccccc1)N(Cc1cccc(Br)c1)C(=O)c1ccc(Cl)cc1Br
13 | 3.5 | O=C(O)[C@H](Cc1ccccc1)N(Cc1cccc(Br)c1)C(=O)c1ccc(Cl)cc1Cl
14 | 10.6 | O=C(O)[C@H](Cc1ccccc1)N(Cc1cccc(Br)c1)C(=O)c1ccc(Cl)cc1
15 | 31 | O=C(O)[C@H](Cc1ccccc1)N(Cc1cccc(Br)c1)C(=O)c1ccccc1Cl
16 | > 50 | O=C(O)[C@H](Cc1ccccc1)N(Cc1cccc(Br)c1)C(=O)c1ccccc1
17 | 5.9 | Cc1ccc(C(=O)N(Cc2cccc(Br)c2)[C@@H](Cc2ccccc2)C(=O)O)c(C)c1
18 | 5.6 | CCc1cc(Cl)ccc1C(=O)N(Cc1cccc(Br)c1)[C@@H](Cc1ccccc1)C(=O)O
19 | 30 | O=C(O)[C@H](Cc1ccccc1)N(Cc1cccc(Br)c1)C(=O)c1ccc(Cl)c(Cl)c1
20 | 11 | COc1cc(Cl)ccc1C(=O)N(Cc1cccc(Br)c1)[C@@H](Cc1ccccc1)C(=O)O
